Experimental data as given in patent US5117830A, “Method of determining viability of tissue” (priority 1990, dated 1992).
Read-outs that look alike come from different tables or passages of the source. One block for each molecule: values may come before it.

Legend:
[1] = test system: rat heart rate and blood pressure; test: In vivo rat heart rate and blood pressure
Protocol: Rats were anesthetized with urethan and blood pressure was monitored via a carotid cannula. Drug injections were made intravenously through a jugular cannula. Blood pressure, EGC, and heart rate were recorded on a Grass polygraph.

[2] = test system: rat cortical A1 receptors; test: Displacement of [^3 H]-CHA from rat cortical A1 receptors; format: binding; conditions: Table 4
Protocol: Varying concentrations of test compounds were incubated with the appropriate radioligand and membrane source for 1 hr at room temperature.
Assays were terminated by filtration over Whatman GF/B filters that had been pre-soaked with 0.1% polyethyleneimine using a 24 port Brandell cell hawester. The filters were washed three times with 3 ml of ice cold buffer and transferred to plastic scintillation vials to which 4 ml of Beckman Ready-Protein scintillation cocktail was added. The tubes were shaken and counted in a Beckman 3801 scintillation counter that converted cpm to dpm.
Data were analyzed by utilizing the Ligand commercial computer program (Munson and Rodbard, 1980).
Male Sprague Dawley rats were killed by decapitation and the brains removed. The cerebral cortices were homogenized in 50 mm Tris; 2mm MgCl2 (pH 7.4), and centrifuged at 40,000×g for 10 minutes. […] The homogenate was centrifuged, washed once, resuspended to a protein concentration of 5-10 mg/ml and frozen at -70° C. until use.

A1 adenosine receptors = biological target: T1, A1 adenosine receptors (Cavia porcellus, UniProt P47745); test: Antagonism of adenosine agonists in reducing force of contraction of guinea pig atrium (A1); conditions: for competitive antagonism at adenosine receptors in the atria / basal force of contraction in the atria: guinea pig atria
T1 construct: The left atria from male guinea pigs were isolated; from tissue; host or cells: guinea pig left atrium (whole tissue in organ bath)
T1 sequence (P47745 1-326): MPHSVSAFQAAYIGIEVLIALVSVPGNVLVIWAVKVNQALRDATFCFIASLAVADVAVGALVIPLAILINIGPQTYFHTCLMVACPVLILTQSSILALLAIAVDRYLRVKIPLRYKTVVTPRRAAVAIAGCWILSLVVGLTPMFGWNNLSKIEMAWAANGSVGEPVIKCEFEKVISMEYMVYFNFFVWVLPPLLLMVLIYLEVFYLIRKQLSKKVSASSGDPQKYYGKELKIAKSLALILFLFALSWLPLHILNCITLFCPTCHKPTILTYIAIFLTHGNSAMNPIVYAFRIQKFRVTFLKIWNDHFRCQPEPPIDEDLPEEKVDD
Protocol: The left atria from male guinea pigs were isolated, suspended between two punctate electrodes, and placed in a 20 ml organ bath that contained Krebs-Hensileit solution that was continuously gassed with 95% O2 +5% CO2 and maintained at 31° C. The resting tension was one gram. The atria were stimulated electrically at 1 Hz, 1 msec duration pulses at supramaximal voltage. The force of contraction was recorded isometrically.
(§1) The ability of the compounds to antagonize the effects of agonists was analyzed using modified Schild plots.

A2 adenosine receptors = test: Antagonism of adenosine agonists in decreasing contractile tone of guinea pig taenia caecum (A2); conditions: for antagonism of the effects of adenosine agonists in relaxing the taenia caecum: guinea pig taenia caecum; for selectivity for A1 adenosine receptors: lack of competitive antagonism in taenia caecum
Protocol: Taenia from the guinea pig caecum were cut into lengths of 1.5-2 cm. The tissues were suspended in a 20 ml organ bath containing de Jalon's solution that was gassed with 95% O2 +5% CO2 and maintained at 31° C. The resting tension was 1.5 g. The contractile response was measured isotonically.
as §1

adenosine receptors = conditions: cited from earlier work
[3] = cited from earlier work
coronary artery = conditions: cited from earlier work
patients = conditions: in vivo; cited from earlier work
A2 receptors [4] = conditions: vs N^6 -substituted analogs; cited from earlier work
A1 receptors [5] = biological target: T2, A1 receptors (Rattus norvegicus, UniProt P25099); test: Inhibition of N^6 -R-[^3 H]-phenylisopropyladenosine binding in rat brain membranes; parameters: rat brain membranes; from tissue; host or cells: rat brain (membranes); conditions: for Ki: (D) Rat Brain Membranes, read-out: Ki vs [^3 H] PIA (Binding), A1 Effects
T2 sequence (P25099 1-326): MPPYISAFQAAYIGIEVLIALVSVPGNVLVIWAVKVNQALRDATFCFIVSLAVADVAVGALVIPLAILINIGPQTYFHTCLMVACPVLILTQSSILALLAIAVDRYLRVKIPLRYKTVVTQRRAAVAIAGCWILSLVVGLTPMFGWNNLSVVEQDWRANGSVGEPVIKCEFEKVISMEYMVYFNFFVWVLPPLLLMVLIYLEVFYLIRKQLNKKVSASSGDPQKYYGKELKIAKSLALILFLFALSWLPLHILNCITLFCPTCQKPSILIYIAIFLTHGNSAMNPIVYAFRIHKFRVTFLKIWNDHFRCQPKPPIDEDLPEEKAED
Protocol: (§2) For activity at A1 receptors, compounds were tested as inhibitors of the binding of N^6 -R-[^3 H]-Phenylisopropyladenosine in rat brain membranes and for their ability to prevent R-PIA-induced inhibition of adenylate cyclase in rat fat cell membranes.

A2 receptors [6] = biological target: T3, A2 receptors (Homo sapiens, UniProt P29274); test: Antagonism of NECA-stimulated adenylate cyclase in human platelet membranes; format: biochemical
T3 construct: membranes of human platelets; from tissue; host or cells: human platelets (membranes)
T3 sequence (P29274 whole entry): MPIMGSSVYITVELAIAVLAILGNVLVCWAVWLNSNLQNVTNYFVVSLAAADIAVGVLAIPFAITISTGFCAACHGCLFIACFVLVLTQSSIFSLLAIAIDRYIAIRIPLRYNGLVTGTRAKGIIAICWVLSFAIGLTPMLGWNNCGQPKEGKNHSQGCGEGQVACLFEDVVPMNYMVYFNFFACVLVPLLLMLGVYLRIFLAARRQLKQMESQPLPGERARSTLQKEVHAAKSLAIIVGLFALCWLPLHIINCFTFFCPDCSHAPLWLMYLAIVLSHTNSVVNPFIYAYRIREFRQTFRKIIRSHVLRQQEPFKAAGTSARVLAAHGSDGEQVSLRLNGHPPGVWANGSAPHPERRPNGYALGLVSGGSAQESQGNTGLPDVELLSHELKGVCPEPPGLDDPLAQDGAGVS

A1 receptors [7] = biological target: T2, A1 receptors; test: Prevention of R-PIA-induced inhibition of adenylate cyclase in rat fat cell membranes; format: biochemical
Protocol: as §2

A2 receptors [8] = biological target: T4, A2 receptors (Rattus norvegicus, UniProt P30543); test: Antagonism of NECA-stimulated adenylate cyclase in rat PC12 membranes; format: biochemical; conditions: read-out: KB vs NECA Stimulation (Adenylate Cyclase), A2 Effects; (B) Rat PC12 Membranes
T4 construct: NECA-stimulated adenylate cyclase
T4 sequence (P30543 whole entry): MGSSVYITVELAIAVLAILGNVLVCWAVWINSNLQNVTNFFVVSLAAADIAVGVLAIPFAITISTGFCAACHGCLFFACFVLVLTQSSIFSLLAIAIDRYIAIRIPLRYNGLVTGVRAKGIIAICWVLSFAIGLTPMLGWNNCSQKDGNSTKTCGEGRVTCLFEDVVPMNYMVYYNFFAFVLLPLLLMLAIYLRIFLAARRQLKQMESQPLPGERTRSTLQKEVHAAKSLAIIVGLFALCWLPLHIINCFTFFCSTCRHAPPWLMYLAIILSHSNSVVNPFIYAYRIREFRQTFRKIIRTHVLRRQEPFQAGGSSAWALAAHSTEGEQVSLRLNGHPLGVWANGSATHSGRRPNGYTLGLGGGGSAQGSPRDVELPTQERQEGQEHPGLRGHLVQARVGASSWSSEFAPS
Protocol: as §2, with “membranes. For activity at A2 receptors, compounds were tested as antagonists of NECA-stimulated adenylate cyclase in membranes of human platelets and rat PC12 cells.” for “membranes.”

[9] = anesthetized rats, high doses of adenosine
[10] = prior administration, NECA as agonist

Molecule: Cn1cnc2c(N[C@H]3C[C@H]4CC[C@@H]3C4)ncnc21 (relative stereo) [compound 0861, N^6-(endo-2-norbornyl)-9-MA]
effects of subsequently administered adenosine on all parameters (blood pressure, heart rate, P-R interval) ([1]; anesthetized rats, antagonist given before adenosine): attenuated the effects of subsequently administered adenosine on all parameters measured
adenosine-induced heart block [1, 9]: substantially reduced
NECA-induced decrease in blood pressure [1, 10]: minimally affecting the NECA-induced decrease in blood pressure
effects of NECA on the heart [1, 10]: attenuated the effects of NECA on the heart
selectivity in vivo ([1]; rat): cardioselective adenosine receptor antagonist in vivo
selectivity for A1 receptors over A2 receptors [2]: 170 fold
A1 /A2 ([2]; ratio of Ki values): 5.89 × 10^-3
selectivity towards the A1 adenosine receptor / rank of potency (A1 adenosine receptors; Table 2 compounds): the most potent antagonist
competitive antagonism at adenosine receptors in the atria (A1 adenosine receptors): competitive antagonists
antagonism of the effects of adenosine agonists in relaxing the taenia caecum (A2 adenosine receptors): did not competitively antagonize
selectivity for A1 adenosine receptors (A2 adenosine receptors): selective for A1 adenosine receptors

Molecule: Cn1c(=O)c2[nH]c(-c3ccccc3)nc2n(C)c1=O [8-phenyltheophylline (8-PT), 8-phenyltheophylline, reference compound]
receptor selectivity (adenosine receptors): non-selective adenosine receptor antagonist
antagonism of the effects of adenosine agonists in relaxing the taenia caecum (A2 adenosine receptors): did antagonize the effects of agonists at low concentrations
sensitization of the tissue (A2 adenosine receptors; high concentrations, larger response to agonist): Sensitization is also observed when using high concentrations

Molecule: Nc1ncnc2c1ncn2[C@@H]1O[C@H](CO)[C@@H](O)[C@H]1O [Adenosine, reference compound]
half-life ([3]; in vivo): less than two
heart block [1, 9]: At high doses, adenosine causes heart block
P-R interval of the ECG ([1]; anesthetized rats, intravenous): concomitant increase in the P-R interval
blood pressure ([1]; anesthetized rats, intravenous): dose dependent decrease in blood pressure
heart rate ([1]; anesthetized rats, intravenous): dose dependent decrease in blood pressure and heart rate
heart rate, ventilation and airway resistance (coronary artery): increases heart rate, and stimulates ventilation but does not alter airway resistance
vasodilation / coronary blood flow (coronary artery): potent vasodilator, except in the kidney
side effects (patients): a number of cardiovascular, respiratory, central nervous system, and gastrointestinal side effects

Molecule: OCCN(CCO)c1nc(N2CCCCC2)c2nc(N(CCO)CCO)nc(N3CCCCC3)c2n1 [Dipyridamole, dipyridamole]
half-life compared with adenosine ([3]; dipyridamole): significantly longer half-life
vasodilation / coronary blood flow (coronary artery): increase in coronary blood flow
side effects (patients): rare but potentially serious side effects which include myocardial ischemia, cardiac arrhythmia, and sudden death

Molecule: CCNC(=O)[C@H]1O[C@@H](n2cnc3c(N)ncnc32)[C@H](O)[C@@H]1O [NECA, 5'-N-ethylcarboxamido-adenosine]
potency at A2 receptors (A2 receptors [4]): more potent than N^6 -substituted analogs

Ki (A1 receptors [5]): 0.94 µM
Molecule: Cn1cnc2c(NC3CCCCC3)ncnc21 [N^6 -Cyclohexyl-9-MA]

basal force of contraction in the atria (A1 adenosine receptors): increases in basal force of contraction
competitive antagonism at adenosine receptors in the atria (A1 adenosine receptors): competitive antagonists
Molecule: CCC(Cc1cccs1)Nc1ncnc2c1ncn2C (stereo not drawn) [N^6-1-(2-thienyl)-2-butyl-9-MA]

basal force of contraction in the atria (A1 adenosine receptors): increases in basal force of contraction
competitive antagonism at adenosine receptors in the atria (A1 adenosine receptors): competitive antagonists
antagonism of the effects of adenosine agonists in relaxing the taenia caecum (A2 adenosine receptors): did not competitively antagonize
selectivity for A1 adenosine receptors (A2 adenosine receptors): selective for A1 adenosine receptors
Molecule: CCC(CC)Nc1ncnc2c1ncn2C [N^6-3-Pentyl-9-MA]

Molecule: Cn1c(=O)c2c(ncn2C)n(C)c1=O [caffeine]
antagonism at adenosine receptors (adenosine receptors): best known antagonists at adenosine receptors

potency relative to 9-methyladenine at A2 receptors (A2 receptors [6]; human platelet assay): fivefold more potent
Ki (A1 receptors [5]): 0.54 µM
potency relative to 9-methyladenine at A1 receptors (A1 receptors [5]; A1 receptors): at least 100 fold
competitive antagonism at adenosine receptors in the atria (A1 adenosine receptors): competitive antagonists
antagonism of the effects of adenosine agonists in relaxing the taenia caecum (A2 adenosine receptors): did not competitively antagonize
selectivity for A1 adenosine receptors (A2 adenosine receptors): selective for A1 adenosine receptors
Molecule: Cn1cnc2c(NC3CCCC3)ncnc21 [compound 0840, N^6-cyclopentyl-9-MA]

Kb (A1 receptors [7]): 23 µM
Molecule: C[C@@H](Cc1ccccc1)Nc1ncnc2c1ncn2C [compound 0986, N^6 -S-1-phenyl-2-propyl-9-MA]

Kb (A2 receptors [6]; read-out: KB vs NECA Stimulation (Adenylate Cyclase), A2 Effects, (A) Human Platelet Membranes): 45 µM
Kb (A2 receptors [8]): 56 µM
Ki (A1 receptors [5]): 2.5 µM
Kb (A1 receptors [7]; (C) Rat Fat Cell Membranes, read-out: KB vs PIA INHIBITION (Adenylate Cyclase), A1 Effects): 9 µM
Molecule: N^6 -Methylcylopentyl-9-MA
